As a reminder, the MIC90 is an inhibitory concentration at the 90% level, which refers to growth in some studies and to a panel of isolates in others. As usually defined, the IC50 is the concentration needed to halve the response being measured. The term stoichiometry N denotes the number of molecules, sites or subunits per partner or assembly.

Series [1] deals with T1, CYP144TR (Mycobacterium tuberculosis, UniProt P9WPL1).
T1 sequence (P9WPL1 31-434 limits assumed): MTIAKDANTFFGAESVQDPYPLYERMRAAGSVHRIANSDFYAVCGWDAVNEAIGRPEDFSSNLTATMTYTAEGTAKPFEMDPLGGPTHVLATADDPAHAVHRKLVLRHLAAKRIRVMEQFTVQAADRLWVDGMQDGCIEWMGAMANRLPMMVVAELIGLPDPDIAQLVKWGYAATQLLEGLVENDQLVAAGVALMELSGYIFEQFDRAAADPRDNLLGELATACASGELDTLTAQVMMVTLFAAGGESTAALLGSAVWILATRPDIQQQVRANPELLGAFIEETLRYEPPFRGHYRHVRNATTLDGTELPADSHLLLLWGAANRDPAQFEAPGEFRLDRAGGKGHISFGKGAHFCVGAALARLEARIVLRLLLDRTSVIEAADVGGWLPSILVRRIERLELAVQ

The target in series [2] is T2, CYP125 (Mycobacterium tuberculosis, UniProt P9WPP1).
T2 sequence (P9WPP1 1-433): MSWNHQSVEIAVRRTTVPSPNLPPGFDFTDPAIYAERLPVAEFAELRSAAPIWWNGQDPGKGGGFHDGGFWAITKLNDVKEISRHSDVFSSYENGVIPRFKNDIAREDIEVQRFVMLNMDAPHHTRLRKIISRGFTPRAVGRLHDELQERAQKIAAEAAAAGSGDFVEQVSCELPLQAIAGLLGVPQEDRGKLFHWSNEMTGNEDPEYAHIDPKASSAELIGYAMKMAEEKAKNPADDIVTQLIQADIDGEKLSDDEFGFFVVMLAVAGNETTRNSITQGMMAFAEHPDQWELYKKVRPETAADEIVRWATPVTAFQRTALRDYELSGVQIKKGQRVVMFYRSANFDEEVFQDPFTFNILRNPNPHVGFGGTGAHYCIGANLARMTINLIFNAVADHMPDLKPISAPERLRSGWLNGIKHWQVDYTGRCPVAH
As to the kind of experiment: Single shot UV–vis binding mode assay on CYP125.

Series [3] deals with T3, CYP121 (Mycobacterium tuberculosis, UniProt P9WPP7). The series is classed as binding.
Series [4] has as its target T4, CYP143 (Mycobacterium tuberculosis, UniProt P9WPL3).
T4 construct: made in house
As to the kind of experiment: Single shot UV–vis binding mode assay on CYP143. The settings on record: analogues 100 μM or 1 mM, P450 2.5–5 μM. Here is the method:
UV–vis screening was performed using a CARY400 UV–vis spectrophotometer (Varian, CA, USA). Ligands were prepared as DMSO-d6 stock solutions (1–100 mM) and added to protein (5 μM) solutions (198 μL) or to buffer alone to give a final DMSO-d6 concentration of 1% v/v. CYP121 was prepared in 50 mM Tris-HCl (pH 7.2), 1 mM EDTA buffer. CYP125, CYP126, CYP142, CYP143, and CYP144 were prepared in 50 mM Tris-HCl (pH 7.5), 100 mM KCl buffer. CYP124 was prepared in 100 mM potassium phosphate (pH 7.0), 100 mM KCl buffer. Spectra were recorded between 800 and 250 nm at 25 °C. Any spectral interference from the inherent absorbance of added ligands/solvent was removed by subtracting spectra collected for protein-free samples of the same ligands/solvent in buffer. The difference in Soret wavelength maximum (Δλmax) of the respective P450s Soret band (λmax) in the presence of ligands compared to that obtained for a 1% v/v DMSO-d6 control was used to identify type I or type II heme-binding interactions. […]
The difference in the red-shift of the Soret band between competition assays and that found for the known type II ligand in the absence of competing ligands was used to determine competitive binding. Buffer control spectra were collected to account for any inherent absorbance of added ligands/solvent and all solutions were inspected and found to be free of precipitate. […]

In series [5] the target is T3, CYP121. The series can be described thus: Single shot UV–vis absorbance assay (Soret band shift, competition with type II inhibitor) on CYP121. Format: binding. The conditions noted are these: for shifts in the CYP121 optical spectrum: UV–vis spectroscopy.
The subject of series [6] is Mtb H37Rv. The series can be described thus: Antimycobacterial activity assay (MIC90). The conditions noted are these: triplicate, 0–100 μM, 2 weeks. The series is classed as cell-based, Mycobacterium tuberculosis. Also on record: key to MIC90: “N” indicates that compounds did not produce any significant cell death within the tested concentration range.
Series [7] relates to CYP1A (combined CYP1A1 and CYP1A2). As to the kind of experiment: Human P450 inhibition in human liver microsomes, CYP1A (ethoxyresorufin). The settings on record: human. (In general: Liver microsomes are a subcellular fraction often used to study metabolism.)
For series [8], the target named is T3, CYP121. As to the kind of experiment: Native mass spectrometry of CYP121 with ligands. Format: binding.
Series [9] deals with the molecule itself. As to the kind of experiment: native MS.
Setting [10] is: Gibbs free energy of binding to CYP121 divided by number of heavy atoms (ΔG/HA).
[11] abbreviates: Mycobacterium tuberculosis, 336 h, read-out: MIC90.

Converted amounts (≈) assume the structure as drawn. Where two headings read alike, the source gives them in different places.

T4 sequence (P9WPL3 whole entry): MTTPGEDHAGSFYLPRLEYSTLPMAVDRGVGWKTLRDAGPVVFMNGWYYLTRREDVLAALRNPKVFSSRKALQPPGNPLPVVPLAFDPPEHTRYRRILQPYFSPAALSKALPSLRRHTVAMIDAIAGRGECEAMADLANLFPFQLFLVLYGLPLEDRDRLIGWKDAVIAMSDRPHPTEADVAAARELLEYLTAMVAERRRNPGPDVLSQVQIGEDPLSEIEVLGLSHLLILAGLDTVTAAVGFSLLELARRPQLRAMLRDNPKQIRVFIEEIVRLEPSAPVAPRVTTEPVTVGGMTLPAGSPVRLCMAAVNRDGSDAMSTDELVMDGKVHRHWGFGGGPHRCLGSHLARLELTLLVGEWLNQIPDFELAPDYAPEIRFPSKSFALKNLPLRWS

For `Nc1[nH]nc(-c2ccc(O)cc2)c1-c1ccc(O)cc1` [compound 5, 4,4′-(5-Amino-1H-pyrazole-3,4-diyl)diphenol], the “Binding Mode, CYP144TR” value in [1] is recorded as “N”. For the same molecule, in [2], the “Binding Mode, CYP125” value was “N”. Moreover, the “LE (ligand efficiency)” value in [3] (setting [10]) was 0.30. In [4], the “Binding Mode, CYP143” value is on record as “N”. Also, the “Binding Mode, CYP121” value in series [5] (analogues 100 μM or 1 mM, P450 2.5–5 μM) is recorded as “N”. Also, the MIC90 entry in [6] was “N”.

Consider `O=c1cc(-c2ccccc2)oc2c1ccc1ccccc12` [alpha-naphthoflavone, reference compound], for which, in [7] (microsomes), the IC50 was determined as 59.7 nM.

As to `COc1ccc(-c2n[nH]c(N)c2-c2cccc(-c3cccc(N)c3)c2)cc1` [24a, 4-(3′-Amino-[1,1′-biphenyl]-3-yl)-3-(4-methoxyphenyl)-1H-pyrazol-5-amine], the “LE (ligand efficiency)” value in series [3] (setting [10]) was determined as 0.38. Besides, the “shifts in the CYP121 optical spectrum” value in series [5] is “type II shifts”. Also, in [8] (Protein-Ligand Ratio 1:0.5), the “Monomer (%) of CYP121” value is 19%; the “ligand binding stoichiometry, CYP121 Dimer” value was 1; the “ligand binding stoichiometry, CYP121 Monomer” value turned out to be 0. In [8] (Protein-Ligand Ratio 1:1), the “Monomer (%) of CYP121” value amounted to 16%; the “ligand binding stoichiometry, CYP121 Dimer” value is given as 1; the “ligand binding stoichiometry, CYP121 Monomer” value came out at 1. For the same molecule, in series [8] (Protein-Ligand Ratio 1:25), the “Monomer (%) of CYP121” value stood at 16%; the “ligand binding stoichiometry, CYP121 Dimer” value came to 2; the “ligand binding stoichiometry, CYP121 Monomer” value turned out to be 1. Besides, in [6] (setting [11]), the MIC90 was determined as 50 µM (≈ 17.8 µg/mL).

For the molecule `Nc1cccc(-c2cc(-c3c(-c4ccc(O)cc4)n[nH]c3N)ccc2O)c1` [25b, 3′-Amino-5-(5-amino-3-(4-hydroxyphenyl)-1H-pyrazol-4-yl)-[1,1′-biphenyl]-2-ol], the “Binding Mode, CYP144TR” value in [1] is listed as “N”. Besides, in series [2], the “Binding Mode, CYP125” value is “N”.

Consider `Nc1cccc(-c2cccc(-c3c(-c4ccc(O)cc4)n[nH]c3N)c2)c1` [25a, 4-(5-Amino-4-(3′-amino-[1,1′-biphenyl]-3-yl)-1H-pyrazol-3-yl)phenol], for which, in series [1], the “Binding Mode, CYP144TR” value is “N”. In addition, the “Binding Mode, CYP125” value in series [2] is “N”. For the same molecule, the “LE (ligand efficiency)” value in [3] is reported as 0.41. Further, in series [7], the selectivity ratio was about 15000. The “shifts in the CYP121 optical spectrum” value in series [5] is given as “type II shifts”. In series [5] (ligand 100 μM, CYP121), the “Δλmax (type II shift)” value was “+5.0 nm”. Further, in series [8] (Protein-Ligand Ratio 1:0.5), the “Monomer (%) of CYP121” value is 14%; the “ligand binding stoichiometry, CYP121 Dimer” value is 1; the “ligand binding stoichiometry, CYP121 Monomer” value was 1. Also, in series [8] (Protein-Ligand Ratio 1:1), the “Monomer (%) of CYP121” value is given as 13%; the “ligand binding stoichiometry, CYP121 Dimer” value amounted to 2; the “ligand binding stoichiometry, CYP121 Monomer” value came out at 1. In series [8] (Protein-Ligand Ratio 1:25), the “Monomer (%) of CYP121” value turned out to be 0%; the “ligand binding stoichiometry, CYP121 Dimer” value is recorded as 2; the “ligand binding stoichiometry, CYP121 Monomer” value is reported as 1. The MIC90 in series [6] (setting [11]) is 100 µM (≈ 34.2 µg/mL).

B1: Mycobacterium tuberculosis CYP121 (Rv2276), His6-tagged construct (enzyme)
chain: MTATVLLEVPFSARGDRIPDAVAELRTREPIRKVRTITGAEAWLVSSYALCTQVLEDRRFSMKETAAAGAPRLNALTVPPEVVNNMGNIADAGLRKAVMKAITPKAPGLEQFLRDTANSLLDNLITEGAPADLRNDFADPLATALHCKVLGIPQEDGPKLFRSLSIAFMSSADPIPAAKINWDRDIEYMAGILENPNITTGLMGELSRLRKDPAYSHVSDELFATIGVTFFGAGVISTGSFLTTALISLIQRPQLRNLLHEKPELIPAGVEELLRINLSFADGLPRLATADIQVGDVLVRKGELVLVLLEGANFDPEHFPNPGSIELDRPNPTSHLAFGRGQHFCPGSALGRRHAQIGIEALLKKMPGVDLAVPIDQLVWRTRFQRRIPERLPVLW
For the molecule B1, the “stoichiometry N” value in series [9] turned out to be 2.

For the origin of these results see PMC4835159 (Journal of Medicinal Chemistry, 2016).
